In patent US20100137398A1, “USE OF HDAC INHIBITORS FOR THE TREATMENT OF GASTROINTESTINAL CANCERS” (NOVARTIS AG, priority 2007, published 2010):

Tests used:
[1] = tested on: AsPC1 pancreatic cancer cell line; assay: Cell proliferation assay, pancreatic cancer cell lines; type: cell-based
Excerpt: (§1) The MTT is a colorimetric assay to determine the cell proliferation rate. The yellow tetrazolium MTT (3-(4, 5-dimethylthiazolyl-2)-2, 5-diphenyltetrazolium bromide) is reduced, by metabolically active cells, in part by the action of dehydrogenase enzymes, to generate reducing equivalents such as NADH and NADPH. The resulting intracellular purple formazan can be solubilized and quantified by spectrophotometric means. The signals produced is directly proportional to the cell numbers. Describing the MTT assay in detail, experiments were done using six-point or 9 point drug titrations in multi-well tissue culture dishes, with outer rows left empty. Cells were suspended in complete media at densities of between 10^3 and 10^4 cell/ml, respectively, and added per well. The appropriate medium (200 μl) was then added. Twenty-four hours later, 10 μl of MTS solution, were added to one plates to determine the activity at the time of compound addition (T0). This plate was incubated at 37° for 4 hours and the optical density was measured on a Molecular Devices Thermomax at 490 nm using the Softmax program. The T0 plate served as a reference for initial activity at the beginning of the experiment.
(§2) Compound addition began 24 hours after seeding, the same time as the T0 determination. Serial dilutions at 4-fold 2-fold, 1-fold, 0.5-fold, 0.25-fold and 0.125-fold of previously determined IC50 values of each compound were made in a 96-deep well plate with the highest concentrations on the edge of the plate. Each of the six dilutions were added in triplicate and complete medium was added to the empty outer rows, without cells. The compounds were added to the plates singly or in combination with Compound III (LBH589). The plates were incubated at 37° C. for 72 hours from seeding. The MTS solution was added (as for the T0 plate) and read four hours later. In order to analyze the data, the average value of media alone (background) was subtracted from each experimental well and the triplicate values were averaged for each compound dilution. The following formulas were used to calculate percent growth.
(§3) If X>T0, % Growth=100×(X−T0)/(GC−T0))
(§4) If X<T0, % Growth=100×(X−T0)/T0)
(§5) T0=average value of T0 minus background
(§6) GC=average value of untreated cells (in triplicate) minus background X=average value, of compound treated cells (in triplicate) minus background
(§7) IC50 the concentration of LBH589 required to inhibit cell growth by 50% and LD50s the concentration required to reduce cell number (kill cells) to 50% the original innoculum were determined. The “% Growth” was plotted against compound concentration and used to calculate IC50s and LD50s, employing the user-defined spline function in Microsoft Excel.
(§8) Pancreatic cancer cell lines were treated with DMSO vehicle control or varying concentrations of LBH589 for 3 days. Cell proliferation was measured on the day of cell plating and on the third day post-treatment. IC50 and LD50 values were calculated as described above.

[2] = tested on: HPAC pancreatic cancer cell line; assay: as above; type: cell-based
Excerpt: as §1, §2, §3, §4, §5, §6, §7, §8

[3] = tested on: Capan1 pancreatic cancer cell line; assay: as above; type: cell-based
Excerpt: as §1, §2, §3, §4, §5, §6, §7, §8

[4] = tested on: Panc3.27 pancreatic cancer cell line; assay: as above; type: cell-based
Excerpt: as §1, §2, §3, §4, §5, §6, §7, §8

[5] = tested on: Hs766T pancreatic cancer cell line; assay: as above; type: cell-based
Excerpt: as §1, §2, §3, §4, §5, §6, §7, §8

[6] = tested on: Panc1 pancreatic cancer cell line; assay: as above; type: cell-based
Excerpt: as §1, §2, §3, §4, §5, §6, §7, §8

[7] = tested on: Panc2.03 pancreatic cancer cell line; assay: as above; type: cell-based
Excerpt: as §1, §2, §3, §4, §5, §6, §7, §8

[8] = tested on: Panc10.05 pancreatic cancer cell line; assay: as above; type: cell-based
Excerpt: as §1, §2, §3, §4, §5, §6, §7, §8

[9] = tested on: BxPC3 pancreatic cancer cell line; assay: as above; type: cell-based
Excerpt: as §1, §2, §3, §4, §5, §6, §7, §8

[10] = tested on: Panc4.03 pancreatic cancer cell line; assay: as above; type: cell-based
Excerpt: as §1, §2, §3, §4, §5, §6, §7, §8

[11] = tested on: MiaPaCa2 pancreatic cancer cell line; assay: as above; type: cell-based
Excerpt: as §1, §2, §3, §4, §5, §6, §7, §8

[12] = tested on: SU.86.86 pancreatic cancer cell line; assay: as above; type: cell-based
Excerpt: as §1, §2, §3, §4, §5, §6, §7, §8

[13] = tested on: HCT116 colon cancer cells; assay: HCT116 xenograft model, tumor growth; type: in vivo, Female athymic nude mice
Description: Female athymic nude mice were implanted subcutaneously with HCT116 colon cancer cells. […] Mice were treated with LBH589 at 5, 10 or 20 mg/kg intravenously (iv) 5 times a week for 3 weeks or 75 mg/kg of 5-Fluorouracil intravenously once a week for 3 weeks. Animals were calipered weekly. Compound activity was determined as the percent change in tumor volume of treated animals over control animals (% T/C). The percentage of regression was determined as the percent change in the final tumor volume at the end of the study over the starting tumor volume. […] The results are described in FIG. 1.

[14] = tested on: 36 colon cancer cell lines; assay: Monolayer growth inhibition assay, panel summary; type: cell-based; conditions: 3 days treatment
Excerpt: as §1, with “Twenty-four hours later, 10 μl of MTS solution, were added to one plates to determine the activity at the time of compound addition (T0).” left out, “The T0 plate served as a reference for initial activity at the beginning of the experiment.” left out
(§9) Compound addition began 24 hours after seeding, the same time as the T0 determination. […] The MTS solution was added (as for the T0 plate) and read four hours later. […]
Colon cancer cell lines were treated with DMSO vehicle control or varying concentrations of LBH589 for 3 days. Cell proliferation was measured on the day of cell plating and on the third day post-treatment. IC50 and LD50 values were calculated as described above.

[15] = tested on: 12 pancreatic cancer cell lines; assay: Cell proliferation assay, panel summary; type: cell-based; conditions: 3 days treatment
Excerpt: as §1, with “Twenty-four hours later, 10 μl of MTS solution, were added to one plates to determine the activity at the time of compound addition (T0).” left out, “The T0 plate served as a reference for initial activity at the beginning of the experiment.” left out
as §9, §8

[16] = 3 days, concentration reducing cell number to 50% of original inoculum

With `Cc1[nH]c2ccccc2c1CCNCc1ccc(/C=C/C(=O)NO)cc1` [LBH589, N-hydroxy-3-[4-[[[2-(2-methyl-1H-indol-3-yl)ethyl]-amino]methyl]phenyl]-2E-2-propenamide] the “LD50” value ([1]; AsPC1, 3 days, concentration reducing cell number to 50% of original inoculum) was 372.4 nM, the IC50 ([1]; Homo sapiens, 72 h, AsPC1, 3 days treatment) was 25.1 nM and the “LD50” value [2, 16] was 2051.6 nM. The IC50 ([2]; Homo sapiens, 72 h, 3 days treatment) was 123 nM, the “LD50” value ([3]; Capan1, 3 days, concentration reducing cell number to 50% of original inoculum) was 191.5 nM and the IC50 ([3]; Homo sapiens, CAPAN-1, 72 h, Capan1, 3 days treatment) was 55.6 nM. The “LD50” value ([4]; Panc3.27, 3 days, concentration reducing cell number to 50% of original inoculum) was 276.8 nM, the IC50 ([4]; Pancreatic cancer cell, 72 h, Panc3.27, 3 days treatment) was 38.5 nM and the IC50 ([5]; 72 h, 3 days treatment) was 14.1 nM. The “LD50” value [5, 16] was 119.9 nM, the IC50 ([6]; Homo sapiens, PANC-1, 72 h, Panc1, 3 days treatment) was 18.9 nM and the “LD50” value ([6]; Panc1, 3 days, concentration reducing cell number to 50% of original inoculum) was 175.4 nM. For the same compound, the IC50 ([7]; Homo sapiens, Panc203, 72 h, Panc2.03, 3 days treatment) was 22.4 nM, the “LD50” value ([7]; Panc2.03, 3 days, concentration reducing cell number to 50% of original inoculum) was 599.5 nM and the IC50 ([8]; Homo sapiens, Panc1005, 72 h, Panc10.05, 3 days treatment) was 31.8 nM. The “LD50” value ([8]; Panc10.05, 3 days, concentration reducing cell number to 50% of original inoculum) was 282.4 nM, the “LD50” value ([9]; BxPC3, 3 days, concentration reducing cell number to 50% of original inoculum) was 104.8 nM and the IC50 ([9]; Homo sapiens, BXPC-3, 72 h, BxPC3, 3 days treatment) was 15.9 nM. The “LD50” value ([10]; Panc4.03, 3 days, concentration reducing cell number to 50% of original inoculum) was greater than 10 µM, the IC50 ([10]; Pancreatic cancer cell, 72 h, Panc4.03, 3 days treatment) was 20.3 nM and the IC50 ([11]; Homo sapiens, MIA PaCa-2, 72 h, MiaPaCa2, 3 days treatment) was 14.1 nM. For the same compound, the “LD50” value ([11]; MiaPaCa2, 3 days, concentration reducing cell number to 50% of original inoculum) was 59.5 nM, the IC50 ([12]; Homo sapiens, 72 h, SU.86.86, 3 days treatment) was 51 nM and the “LD50” value ([12]; SU.86.86, 3 days, concentration reducing cell number to 50% of original inoculum) was 170.4 nM. The “% T/C (percent change in tumor volume of treated over control animals)” value ([13]; 5 mg/kg intravenously 5 times a week for 3 weeks) was 17%, the “% T/C (percent change in tumor volume of treated over control animals)” value ([13]; 10 mg/kg intravenously 5 times a week for 3 weeks) was 6% and the “tumor regression (percent change in final tumor volume over starting tumor volume)” value ([13]; 20 mg/kg intravenously 5 times a week for 3 weeks) was 8%. The IC50 values ([14]; all 36 colon cancer cell lines) was “low nanomolar”, the LD50 ([14]; great majority of the colon cancer cell lines (n=31)) was less than 1 µM and the IC50 values ([15]; all 12 pancreatic cancer cell lines) was “low nanomolar”. It also gave an LD50 ([15]; majority of the pancreatic cancer cell lines (n=10)) of less than 1 µM.
